According to patent publication US20260248787A9, “MEDICAMENT FOR TREATING CANCER COMPRISING OPTICALLY ACTIVE AZABICYCLO RING DERIVATIVE” (Sumitomo Pharma Co., Ltd., priority 2023, published 2026):

Assay: Phase 1/2 first-in-human clinical study, safety evaluation (DLT, TEAE, SAE)
Conditions: for SAE Differentiation syndrome, CTCAE Grade: Related
[1] = cut-off, 40-300 mg BID, unrelated to study drug
[2] = patient US053A-0001, 80 mg BID Arm A, Not related, Recovered/Resolved
[3] = patient US154A-0002, 40 mg BID Arm B, Not related, Not recovered/Not resolved
[4] = patient US154A-0004, 100 mg BID Arm A, Not related, Recovered/Resolved
[5] = patient US185A-0001, 100 mg BID Arm A, Not related, Not recovered/Not resolved
[6] = patient US185A-0006, 120 mg BID Arm A, Not related, Fatal

With `C=C1C[C@@H]2CC[C@H]1[C@@H](C(=O)N1CCC3(CC1)CN(c1ncncc1Oc1ccc(F)cc1C(=O)N(C(C)C)C(C)C)C3)N2` [the present compound, 5-fluoro-2-[(4-{7-[(1S,3S,4R)-5-methylidene-2-azabicyclo[2.2.2]octane-3-carbonyl]-2,7-diazaspiro[3.5]nonan-2-yl}pyrimidin-5-yl)oxy]-N,N-di(propan-2-yl)benzamide] the “Non-hematological TEAE regardless of causality: COVID-19” value (N=57, Grade ≥3) was 3 (5.3%) n (%), the “Non-hematological TEAE regardless of causality: Constipation” value (N=57, Grade ≥3) was 1 (1.8%) n (%) and the “Non-hematological TEAE regardless of causality: Cough” value (N=57, Grade ≥3) was 0 (0.0%) n (%). For the same compound, the “Non-hematological TEAE regardless of causality: Decreased appetite” value (N=57, Grade ≥3) was 2 (3.5%) n (%), the “Non-hematological TEAE regardless of causality: Diarrhoea” value (N=57, Grade ≥3) was 0 (0.0%) n (%) and the “Non-hematological TEAE regardless of causality: Dizziness” value (N=57, Grade ≥3) was 0 (0.0%) n (%). For the same compound, the “Non-hematological TEAE regardless of causality: Dysgeusia” value (N=57, Grade ≥3) was 0 (0.0%) n (%), the “Non-hematological TEAE regardless of causality: Dyspnoea” value (N=57, Grade ≥3) was 3 (5.3%) n (%) and the “Non-hematological TEAE regardless of causality: Electrocardiogram QT prolonged” value (N=57, Grade ≥3) was 2 (3.5%) n (%). For the same compound, the “Non-hematological TEAE regardless of causality: Epistaxis” value (N=57, Grade ≥3) was 1 (1.8%) n (%), the “Non-hematological TEAE regardless of causality: Fatigue” value (N=57, Grade ≥3) was 1 (1.8%) n (%) and the “Non-hematological TEAE regardless of causality: Haemorrhage intracranial” value (N=57, Grade ≥3) was 4 (7.0%) n (%). The “Non-hematological TEAE regardless of causality: Headache” value (N=57, Grade ≥3) was 0 (0.0%) n (%), the “Non-hematological TEAE regardless of causality: Hypertension” value (N=57, Grade ≥3) was 3 (5.3%) n (%) and the “Non-hematological TEAE regardless of causality: Hypotension” value (N=57, Grade ≥3) was 2 (3.5%) n (%). The “Non-hematological TEAE regardless of causality: Muscular weakness” value (N=57, Grade ≥3) was 2 (3.5%) n (%), the “Non-hematological TEAE regardless of causality: Myalgia” value (N=57, Grade ≥3) was 0 (0.0%) n (%) and the “Non-hematological TEAE regardless of causality: Nausea” value (N=57, Grade ≥3) was 4 (7.0%) n (%). The “Non-hematological TEAE regardless of causality: Oedema peripheral” value (N=57, Grade ≥3) was 0 (0.0%) n (%), the “Non-hematological TEAE regardless of causality: Pain in extremity” value (N=57, Grade ≥3) was 1 (1.8%) n (%) and the “Non-hematological TEAE regardless of causality: Pneumonia” value (N=57, Grade ≥3) was 10 (17.5%) n (%). The “Non-hematological TEAE regardless of causality: Pyrexia” value (N=57, Grade ≥3) was 0 (0.0%) n (%), the “Non-hematological TEAE regardless of causality: Sepsis” value (N=57, Grade ≥3) was 10 (17.5%) n (%) and the “Non-hematological TEAE regardless of causality: Stomatitis” value (N=57, Grade ≥3) was 0 (0.0%) n (%). The “Non-hematological TEAE regardless of causality: Vomiting” value (N=57, Grade ≥3) was 3 (5.3%) n (%), the “Non-hematological laboratory change regardless of causality: ALT increase” value (N=57, Grade ≥3) was 0 (0.0%) n (%) and the “Non-hematological laboratory change regardless of causality: AST increase” value (N=57, Grade ≥3) was 1 (1.8%) n (%). The “Non-hematological laboratory change regardless of causality: Hypertriglyceridemia” value (N=57, Grade ≥3) was 4 (7.0%) n (%), the “Non-hematological laboratory change regardless of causality: Hypocalcemia” value (N=57, Grade ≥3) was 2 (3.5%) n (%) and the “Non-hematological laboratory change regardless of causality: Hypokalemia” value (N=57, Grade ≥3) was 10 (17.2%) n (%). The “Non-hematological laboratory change regardless of causality: Hypomagnesemia” value (N=57, Grade ≥3) was 1 (1.8%) n (%), the “Non-hematological laboratory change regardless of causality: Hyponatremia” value (N=57, Grade ≥3) was 0 (0.0%) n (%) and the “Non-hematological laboratory change regardless of causality: Hypophosphatemia” value (N=57, Grade ≥3) was 11 (19.3%) n (%). For the same compound, the “Treatment related adverse event: Nausea” value (N=57, Grade ≥3) was 1 (1.8%) n (%), the “Treatment related adverse event: Vomiting” value (N=57, Grade ≥3) was 1 (1.8%) n (%) and the “TEAE in ≥20% of patients regardless of causality: Fatigue” value (Total N=43, 40-200 mg BID) was 10 (23.3%) n (%). For the same compound, the “TEAE in ≥20% of patients regardless of causality: Hypokalaemia” value (Total N=43, 40-200 mg BID) was 9 (20.9%) n (%), the “TEAE in ≥20% of patients regardless of causality: Nausea” value (Total N=43, 40-200 mg BID) was 15 (34.9%) n (%) and the “TEAE in ≥20% of patients regardless of causality: Vomiting” value (Total N=43, 40-200 mg BID) was 10 (23.3%) n (%). The “TEAE related to the present compound in ≥2 patients: Decreased appetite” value (Total N=43, 40-200 mg BID) was 3 (7.0%) n (%), the “TEAE related to the present compound in ≥2 patients: Nausea” value (Total N=43, 40-200 mg BID) was 3 (7.0%) n (%) and the “TEAE related to the present compound in ≥2 patients: Vomiting” value (Total N=43, 40-200 mg BID) was 4 (9.3%) n (%). The “Possible differentiation syndrome (DS)” value (cut-off, 40-300 mg BID) was 3 pts, the “TEAE assessed as related: nausea” value (cut-off, 40-300 mg BID) was 12.1% and the “TEAE assessed as related: vomiting” value (cut-off, 40-300 mg BID) was 15.5%. The “mortality from DS” value (cut-off, 40-300 mg BID) was “no mortality”, the “Grade >3 TEAE: anemia” value [1] was 13.8% and the “Grade >3 TEAE: febrile neutropenia” value [1] was 15.5%. For the same compound, the “Grade >3 TEAE: platelet count decrease” value [1] was 12.1%, the “Grade >3 TEAE: pneumonia” value [1] was 17.2% and the “Grade >3 TEAE: sepsis” value [1] was 15.5%. The DLT (cut-off, any dose level of 40-300 mg BID) was “No DLT”, the “patients with related asymptomatic Grade 3 QT prolongation” value (cut-off, in the presence of other QT prolonging drugs) was “One” and the DLT (n=81, 40 mg BID to 300 mg BID) was “no DLT”. For the same compound, the “Grade 3 nausea and vomiting” value (n=81, 40-300 mg BID) was 1 patient, the “TEAE assessed as related: nausea” value (n=81, 40-300 mg BID) was 12.3% and the “TEAE assessed as related: vomiting” value (n=81, 40-300 mg BID) was 14.8%. For the same compound, the “TEAE regardless of relationship: decreased appetite” value (n=81, 40-300 mg BID) was 21.0%, the “TEAE regardless of relationship: diarrhea” value (n=81, 40-300 mg BID) was 21.0% and the “TEAE regardless of relationship: febrile neutropenia” value (n=81, 40-300 mg BID) was 22.2%. The “TEAE regardless of relationship: hypokalemia” value (n=81, 40-300 mg BID) was 21.0%, the “TEAE regardless of relationship: nausea” value (n=81, 40-300 mg BID) was 37.0% and the “TEAE regardless of relationship: vomiting” value (n=81, 40-300 mg BID) was 29.6%. For the same compound, the “grade ≥3 QTc prolongation related to the compound” value (n=81, 40-300 mg BID) was “no reports”, the “SAE Sepsis, CTCAE Grade” value (patient JP002A-0001, 40 mg BID Arm A, Not related, Not recovered/Not resolved) was 3 and the “SAE Malignant neoplasm progression, CTCAE Grade” value (patient JP002A-0003, 60 mg BID Arm B, Not related, Fatal) was 5. For the same compound, the “SAE Disease progression, CTCAE Grade” value (patient JP007A-0002, 60 mg BID Arm B, Not related, Not recovered/Not resolved) was 3, the “SAE Sepsis, CTCAE Grade” value (patient JP007A-0002, 60 mg BID Arm B, Not related, Recovered/Resolved) was 4 and the “SAE Pneumonia, CTCAE Grade” value (patient JP028A-0001, 40 mg BID Arm B, Not related, Fatal) was 5. The “SAE Pneumonia, CTCAE Grade” value (patient JP028A-0001, 40 mg BID Arm B, Not related, Recovered/Resolved (one continuous event with the Grade 5)) was 4, the “SAE Haemorrhage intracranial, CTCAE Grade” value (patient US053A-0001, 80 mg BID Arm A, Not related, Fatal) was 5 and the “SAE Atrial fibrillation, CTCAE Grade” value [2] was 3. For the same compound, the “SAE Pneumonia, CTCAE Grade” value [2] was 3, the “SAE Respiratory failure, CTCAE Grade” value [2] was 4 and the “SAE Differentiation syndrome, CTCAE Grade” value (patient US053A-0001, 80 mg BID Arm A, Drug interrupted, Recovered/Resolved) was 4. The “SAE Differentiation syndrome, CTCAE Grade” value (patient US053A-0001, 80 mg BID Arm A, action Not applicable, Recovered/Resolved) was 3, the “SAE Pneumonia, CTCAE Grade” value (patient US053A-0002, 40 mg BID Arm B, Not related, Recovered/Resolved) was 3 and the “SAE Disease progression, CTCAE Grade” value (patient US154A-0001, 80 mg BID Arm A, Not related, Fatal) was 5. The “SAE Disease progression, CTCAE Grade” value (patient US154A-0002, 40 mg BID Arm B, Not related, Fatal) was 5, the “SAE Bone pain, CTCAE Grade” value [3] was 3 and the “SAE Malaise, CTCAE Grade” value [3] was 3. For the same compound, the “SAE Pyrexia, CTCAE Grade” value [4] was 1, the “SAE Respiratory failure, CTCAE Grade” value [4] was 2 and the “SAE Leukocytosis, CTCAE Grade” value (patient US154A-0004, 100 mg BID Arm A, Not related, Recovering/Resolving) was 4. The “SAE Leukocytosis, CTCAE Grade” value (patient US158A-0002, 120 mg BID Arm A, Not related, Recovered/Resolved) was 1, the “SAE Acute myeloid leukaemia, CTCAE Grade” value (patient US185A-0001, 100 mg BID Arm A, Not related, Fatal) was 5 and the “SAE Cerebrovascular accident, CTCAE Grade” value [5] was 4. The “SAE Haemorrhage intracranial, CTCAE Grade” value [5] was 2, the “SAE Electrocardiogram QT prolonged, CTCAE Grade” value (patient US185A-0001, 100 mg BID Arm A, Not related, Recovered/Resolved, hypomagnesaemia at the time) was 3 and the “SAE Febrile neutropenia, CTCAE Grade” value (patient US185A-0002, 40 mg BID Arm B, Not related, Recovered/Resolved) was 3. The “SAE Sepsis, CTCAE Grade” value (patient US185A-0002, 40 mg BID Arm B, Not related, Recovering/Resolving) was 3, the “SAE Lung infection (pneumonia), CTCAE Grade” value [6] was 5 and the “SAE Multiple organ dys function syndrome, CTCAE Grade” value [6] was 5. The “SAE Sepsis, CTCAE Grade” value [6] was 5, the “SAE Pneumonia fungal, CTCAE Grade” value (patient US210A-0001, 80 mg BID Arm A, Not related, Fatal) was 5 and the “SAE Rectal haemorrhage, CTCAE Grade” value (patient US210A-0001, 80 mg BID Arm A, Not related, Recovered/Resolved) was 4. The “SAE Cellulitis, CTCAE Grade” value (patient US210A-0002, 120 mg BID Arm A, Not related, Recovered/Resolved) was 3 and the “safety profile between Arm A and Arm B” value (without vs with azole antifungals) was “not different”.
